Reference: patent US20250163379A1, “METHOD FOR DIFFERENTIATING HEMATOPOIETIC STEM/PROGENITOR CELLS INTO NK CELLS” (HEMACELL BIOTECHNOLOGY INC., priority 2022, published 2025)

Experiments:
[1] = test system: hematopoietic stem/progenitor cells; assay: Flow cytometry analysis of induced NK cells for cytotoxic markers (CD16, CD314, CD335, CD336); format: cell-based; conditions: for efficiency of obtaining CD16+CD56+ NK cells: control group 5.45%, FIG. 2; for efficiency of obtaining CD314+ NK cells: control group 10.1%, FIG. 3; for efficiency of obtaining CD335+ NK cells: control group 12.4%, FIG. 4; for efficiency of obtaining CD336+ NK cells: control group 35.7%, FIG. 5
Method: (§1) The experiment was carried out according to the following steps: • (1) Inoculating hematopoietic stem/progenitor cells into an initial differentiation medium and culturing at 35-39° C. and 3-7%0CO2 for 5 days; • (2) Continuing culturing cells in NIK differentiation medium I for 3-5 days; • (3) Continuing culturing the cells in NK differentiation medium II; replacing half of the culture medium every 5 to 6 days for 22 to 28 days or until NK cells are obtained. • (4) Basal differentiation medium: DMEM high glucose medium, Ham's F-12Nutrient Mix, GlutaMAX™ supplement medium, heat-inactivated human AB serum, L-glutamic acid, 2-mercaptoethanol, sodium selenite, aminoethanol and L-ascorbic acid. • (5) Initial differentiation medium: basal differentiation medium, SCF (15-25 ng/mL); IL3 (3-7 ng/mL); IL7 (15-25 ng/mL); IL15 (8-12 ng/mL); Flt3-L (8-12 ng/mL); GABA pathway activator. • (6) NK differentiation medium I: basal differentiation medium; SCF (15-25 ng/mL); IL3 (3-7 ng/mL); IL7 (15-25 ng/mL); IL15 (8-12 ng/mL); Flt3-L (8-12 ng/mL). • (7) NK differentiation medium II: basal differentiation medium; SCF (15-25 ng/mL); IL15 (8-12 ng/mL); IL7 (15-25 ng/mL); Flt3-L (8-12 ng/mL).
Flow cytometry analysis of induced NK cells
(1) Collection of NK cells: The cells were centrifuged at 300 g for 5 min; the supernatant was discarded, an equal volume of FACS buffer was added to wash and resuspend the cells, and the cells were centrifuged; the above steps were repeated twice; the cells were centrifuged and the supernatant was discarded, and thereafter, 125 μL of FACS buffer was added to resuspend the cells.
(2) Cell staining: 2.5 μL of labeled antibody was added to the cell suspension (volume ratio of labeled antibody:cell=1:50), the system was mixed well, and allowed to react at room temperature in the dark for 30 min; after centrifugation, the supernatant was discarded; 1 mL of FACS buffer was added to wash and resuspend the cells, the cells were centrifuged, and the above steps were repeated twice; the cells were centrifuged and the supernatant was discarded, and thereafter 250 μL of FACS buffer was added to resuspend the cells, the system was transferred to a Falcon flow tube, and placed on ice; 0.25 μL of DAPI was added before loading, the system was mixed well for later loading and detection.
(3) Preparation of single-color compensation control: The microspheres were mixed evenly by inverting vigorously at least 10 times or pulse vortexing; to each EP tube, 1 drop of UltraCompe Beads was added, then 1 μL of fluorescent antibody conjugate was added, the system was well mixed by blowing-suction with a pipette, and incubated at room temperature in the dark for 30 min; 1 mL of FACS buffer was added to each EP tube, the system was centrifuged at 400 g for 5 min at room temperature; the supernatant was sucked out carefully without removing the beads, and then 250 μL of FACS buffer was added to each test tube; the sample was mixed evenly by flicking or pulse vortexing before analysis.
(4) Detection on the flow cytometer: Before detection, the stained cells were placed on ice to prevent cell aggregation; at least 10,000 cells were tested for each sample; unstained cells were analyzed on the flow cytometer, and appropriate FSC and side scatter SSC as well as the voltage of the fluorescence detector PMT were set. […]

[2] = test system: hematopoietic stem/progenitor cells; assay: Inducing differentiation of hematopoietic stem/progenitor cells into NK cells (CD3-CD56+); format: cell-based; conditions: GABA pathway activator in initial differentiation medium; control group 75.6%; FIG. 1
Method: as §1
CD3 is a marker of T cells, CD56 is a marker of NK cells, and the characterization of NK cells is CD3-CD56+. […]

Row | SMILES | efficiency of obtaining CD16+CD56+ NK cells [1] [%] | efficiency of obtaining CD314+ NK cells [1] [%] | efficiency of obtaining CD335+ NK cells [1] [%] | efficiency of obtaining CD336+ NK cells [1] [%] | efficiency of obtaining NK cells (CD3-CD56+) [2] [%]
1 | NC/C=C/C(=O)O [TACA, trans-4-aminocrotonic acid] | 9.71 | 18.4 | 21.1 | 48.8 | 87.2
2 | NCCCC(=O)O [GABA, γ-aminobutyric acid] | 5.86 | 11.0 | 18.2 | 48.2 | 88.3
